These results are taken from patent US20210186997A1, “METHODS AND COMPOSITIONS FOR INCREASING NAD LEVEL IN MAMMALS WITH D-RIBOSE AND VITAMIN B3” (Bioenergy Life Science, Inc., priority 2018, published 2021).

One assay has as its system NAD levels. Description: Experiment 1: NAD levels in blood by LC/MS after bolus administration. It counts as in vivo, Sprague-Dawley rats. Particulars: for NAD levels in blood: male rats, bolus 100 mg per kg of body weight, 0.25-24 hours after feeding, compared to baseline, FIG. 1. The procedure: Four groups of four male Sprague-Dawley rats were each bolus administered the different compounds identified in the table below at a dosage of 100 mg per kg of body weight:
A blood sample of 0.1 ml was drawn from each rat of each group at increments of 0.25, 0.5, 1, 2, 4, 8 and 24 hours after feeding. Each of the blood samples were then measured by Liquid Chromatography/Mass Spectrometry (LC/MS) for NAD levels. The measured NAD levels are charted in FIG. 1, with each data point being the average of the four rats of each group.

A further assay has as its system NR levels. Description: Experiment 1: NR levels in blood by LC/MS after bolus administration. It counts as in vivo, Sprague-Dawley rats. Particulars: male rats, bolus 100 mg/kg, 0.25-24 hours after feeding, compared to baseline, FIG. 2. On the procedure:
Four groups of four male Sprague-Dawley rats were each bolus administered the different compounds identified in the table below at a dosage of 100 mg per kg of body weight: [table] The blood drawn from each of the groups at the increments referenced above were also measured by LC/MS for NR levels. The measured NR levels are charted in FIG. 2, with each data point being the average of three animals of the same sex.

In a further assay the test system is NAD+. Description: Experiment 3: NAD+ in blood by LC/MS/MS, oral dosing twice daily for five days. It counts as in vivo, Sprague-Dawley male rats. The note with it: Nicotinamide control (coated nicotinamide 108 mg/kg PO BID), relative to RiaGev dose-response line, FIG. 11. The procedure:
Eighteen Sprague-Dawley male rats were selected as test animals in the study, with three rats for each of six treatment groups. Sprague-Dawley male rats were selected because they have been widely used in similar experiments with reliable results. The use of three rats per group offers the minimum number required to calculate useful means and standard deviations for graphical representation of the data. For five consecutive days, the rats were dosed at approximately 7:30-8:30 a.m. and at approximately 4:30-5:45 p.m. Blood was collected approximately 0.5 to 1.5 hours following each p.m. dosing and immediately processed and assayed for NAD+, NMN, and NR by LC/MS/MS. The timing of the supplementation doses was chosen to mimic behavior in humans and other non-nocturnal mammals (i.e., diurnal mammals) of eating breakfast in the morning and dinner in the early evening by administering the doses to the animals at around those times. […] Thus the evening sampling time for the rats would correspond to the morning for humans and other diurnal mammals. The animals were humanely euthanized after the final blood draw and representative samples of the liver, biceps muscle, peripheral adipose tissue, and whole brain were collected, snap frozen, extracted, and assayed for NAD+, NMN, and NR by LC/MS/MS. […]

Structures are written as SMILES. Entries after “also recorded” stand apart in the source; their conditions may differ.

Regarding `O=C[C@H](O)[C@H](O)[C@H](O)CO` [D-ribose], in the assay on NAD levels, the “NAD levels in blood” value was “elevated NAD levels; also recorded: increases NAD levels”. Further, the “NR levels in blood” value in the assay with NR levels is recorded as “enhance NR levels”. The matching figures for `O=C(O)c1cccnc1` [Niacin, Nicotinic Acid (Niacin)]: “elevated NAD levels” and “enhance NR levels”. Take `NC(=O)c1ccc[n+]([C@@H]2O[C@H](CO)[C@@H](O)[C@H]2O)c1` [Nicotinamide Riboside (NR), Nicotinamide Riboside]: the “time to peak blood NAD level” value with NAD levels (after consumption) is “about 8 hours”. Further, the “NAD levels in blood” value in the assay with NAD levels is “highest peak value”. In the case of `NC(=O)c1cccnc1` [Nicotinamide], the “blood NAD concentration change over its base (water control) level” value in the assay with NAD+ was “outside of the line”.
